Kd data for 1 substance are collected here from US20060052368A1 (priority 2002, published 2006).

In the assay the target is α7 nAChR subtype (Rattus norvegicus, UniProt Q05941). The format is binding. As to conditions: read-out: KD of radioligand from saturation curves.
α7 nAChR subtype, sequence (Q05941 23-502 limits assumed): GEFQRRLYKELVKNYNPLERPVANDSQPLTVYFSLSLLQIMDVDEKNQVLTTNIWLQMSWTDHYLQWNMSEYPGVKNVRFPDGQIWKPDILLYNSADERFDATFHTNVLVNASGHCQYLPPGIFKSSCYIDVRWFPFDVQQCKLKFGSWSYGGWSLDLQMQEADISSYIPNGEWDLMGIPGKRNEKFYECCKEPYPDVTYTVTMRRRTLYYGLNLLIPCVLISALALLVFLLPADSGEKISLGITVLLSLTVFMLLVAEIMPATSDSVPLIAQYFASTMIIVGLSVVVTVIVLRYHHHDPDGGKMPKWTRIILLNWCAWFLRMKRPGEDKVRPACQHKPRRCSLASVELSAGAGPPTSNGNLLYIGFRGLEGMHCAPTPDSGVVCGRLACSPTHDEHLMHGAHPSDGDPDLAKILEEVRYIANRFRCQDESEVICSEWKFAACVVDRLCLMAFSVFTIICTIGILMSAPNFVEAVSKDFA

In the case of ^125I-α-Bungarotoxin [^125I-α-BTX], the Kd is 1.67 nM.
